Patent US10168342B2, “Lipid probes and uses thereof” (THE SCRIPPS RESEARCH INSTITUTE, priority 2015, dated 2019)
Read-outs that look alike come from different tables or passages of the source.

Assays:
[1] = target: AEA-DA lipid probe targets in Neuro2a cells (Mus musculus, UniProt Q8BVU5); conditions: protein Nudt9, Neuro2a cells
[2] = target: AEA-DA lipid probe targets in Neuro2a cells (Mus musculus, UniProt Q9JKC6)
[3] = target: T1, AEA-DA lipid probe targets in Neuro2a cells (Mus musculus, UniProt Q8C0K5)
T1 sequence (Q8C0K5 1-332): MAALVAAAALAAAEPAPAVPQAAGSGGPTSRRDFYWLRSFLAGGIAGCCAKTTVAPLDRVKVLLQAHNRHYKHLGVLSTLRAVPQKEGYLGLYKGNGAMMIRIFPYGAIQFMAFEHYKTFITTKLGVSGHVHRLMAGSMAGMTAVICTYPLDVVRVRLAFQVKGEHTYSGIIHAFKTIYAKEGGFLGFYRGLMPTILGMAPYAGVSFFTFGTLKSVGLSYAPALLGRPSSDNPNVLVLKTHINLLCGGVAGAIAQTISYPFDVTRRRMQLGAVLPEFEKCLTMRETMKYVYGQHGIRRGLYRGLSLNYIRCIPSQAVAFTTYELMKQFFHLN

[4] = target: T2, AEA-DA lipid probe targets in Neuro2a cells (Mus musculus, UniProt P04223)
T2 sequence (P04223 22-369): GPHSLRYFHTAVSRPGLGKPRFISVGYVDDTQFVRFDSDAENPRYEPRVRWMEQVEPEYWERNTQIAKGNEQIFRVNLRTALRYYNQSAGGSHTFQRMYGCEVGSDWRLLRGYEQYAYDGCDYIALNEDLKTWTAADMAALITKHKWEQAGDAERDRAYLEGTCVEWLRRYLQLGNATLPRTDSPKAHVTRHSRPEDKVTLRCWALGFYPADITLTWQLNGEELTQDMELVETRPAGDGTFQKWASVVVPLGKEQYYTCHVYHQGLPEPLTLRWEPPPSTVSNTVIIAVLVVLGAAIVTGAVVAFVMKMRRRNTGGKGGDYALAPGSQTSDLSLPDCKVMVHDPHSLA

[5] = target: AEA-DA lipid probe targets in Neuro2a cells (Mus musculus, UniProt O88545)
Sequence of AEA-DA lipid probe targets in Neuro2a cells (Mus musculus, UniProt O88545) (O88545 whole entry): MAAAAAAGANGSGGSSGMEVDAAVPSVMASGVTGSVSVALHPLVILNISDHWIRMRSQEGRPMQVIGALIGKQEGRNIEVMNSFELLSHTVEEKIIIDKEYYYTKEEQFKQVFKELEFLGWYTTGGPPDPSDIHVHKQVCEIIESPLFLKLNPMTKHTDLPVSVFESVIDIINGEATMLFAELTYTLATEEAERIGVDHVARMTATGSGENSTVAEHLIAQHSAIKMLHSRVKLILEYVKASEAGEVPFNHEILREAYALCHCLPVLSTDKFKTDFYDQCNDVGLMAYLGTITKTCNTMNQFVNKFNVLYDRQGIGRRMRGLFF

[6] = target: T3, AEA-DA lipid probe targets in Neuro2a cells (Mus musculus, UniProt Q11011)
T3 sequence (Q11011 1-920): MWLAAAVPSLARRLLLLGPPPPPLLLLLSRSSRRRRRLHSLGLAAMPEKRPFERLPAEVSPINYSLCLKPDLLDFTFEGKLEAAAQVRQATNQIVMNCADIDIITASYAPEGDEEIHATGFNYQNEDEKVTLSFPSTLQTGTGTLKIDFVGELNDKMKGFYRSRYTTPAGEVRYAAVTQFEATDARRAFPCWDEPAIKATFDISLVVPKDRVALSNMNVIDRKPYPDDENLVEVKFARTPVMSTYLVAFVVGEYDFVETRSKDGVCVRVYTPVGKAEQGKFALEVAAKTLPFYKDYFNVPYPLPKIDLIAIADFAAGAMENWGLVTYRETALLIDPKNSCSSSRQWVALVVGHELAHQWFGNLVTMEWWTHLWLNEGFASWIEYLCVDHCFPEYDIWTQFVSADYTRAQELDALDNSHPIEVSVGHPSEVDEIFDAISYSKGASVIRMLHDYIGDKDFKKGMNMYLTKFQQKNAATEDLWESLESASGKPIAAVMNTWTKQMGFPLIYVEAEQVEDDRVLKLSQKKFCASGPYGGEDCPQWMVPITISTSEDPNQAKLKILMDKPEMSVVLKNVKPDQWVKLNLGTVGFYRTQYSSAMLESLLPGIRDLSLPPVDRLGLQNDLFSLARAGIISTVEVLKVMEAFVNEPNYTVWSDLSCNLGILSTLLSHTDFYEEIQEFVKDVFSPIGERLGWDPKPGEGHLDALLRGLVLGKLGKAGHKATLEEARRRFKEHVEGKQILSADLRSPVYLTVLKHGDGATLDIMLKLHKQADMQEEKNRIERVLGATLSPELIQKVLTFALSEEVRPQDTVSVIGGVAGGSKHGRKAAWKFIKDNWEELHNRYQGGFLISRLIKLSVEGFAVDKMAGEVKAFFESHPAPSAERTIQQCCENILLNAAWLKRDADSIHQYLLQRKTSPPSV

[7] = target: AEA-DA lipid probe targets in Neuro2a cells (Mus musculus, UniProt Q78IK4); conditions: protein Apool; Neuro2a cells; competitor 25 μM
Sequence of AEA-DA lipid probe targets in Neuro2a cells (Mus musculus, UniProt Q78IK4) (Q78IK4 28-265): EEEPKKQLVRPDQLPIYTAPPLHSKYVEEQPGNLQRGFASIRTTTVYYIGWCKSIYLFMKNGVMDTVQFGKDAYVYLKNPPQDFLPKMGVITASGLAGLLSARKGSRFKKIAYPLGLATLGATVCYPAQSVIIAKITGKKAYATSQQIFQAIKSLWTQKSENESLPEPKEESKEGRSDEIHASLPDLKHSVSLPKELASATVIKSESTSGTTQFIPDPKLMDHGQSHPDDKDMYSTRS

Sequence of AEA-DA lipid probe targets in Neuro2a cells (Mus musculus, UniProt Q9JKC6) (Q9JKC6 whole entry): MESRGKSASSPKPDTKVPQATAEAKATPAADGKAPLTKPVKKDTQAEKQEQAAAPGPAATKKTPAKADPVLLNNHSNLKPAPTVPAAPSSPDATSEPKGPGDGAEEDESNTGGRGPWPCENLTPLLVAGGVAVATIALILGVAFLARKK
Sequence of AEA-DA lipid probe targets in Neuro2a cells (Mus musculus, UniProt Q8BVU5) (Q8BVU5 47-350): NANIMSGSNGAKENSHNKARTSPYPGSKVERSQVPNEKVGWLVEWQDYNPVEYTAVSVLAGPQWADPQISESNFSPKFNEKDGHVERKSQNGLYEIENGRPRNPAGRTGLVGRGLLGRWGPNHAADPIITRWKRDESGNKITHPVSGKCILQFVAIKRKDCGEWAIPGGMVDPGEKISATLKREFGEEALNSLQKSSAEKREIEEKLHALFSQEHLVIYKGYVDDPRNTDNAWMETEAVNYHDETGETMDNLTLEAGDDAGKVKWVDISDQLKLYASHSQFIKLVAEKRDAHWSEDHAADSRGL

CCCCC/C=C\C/C=C\C/C=C\C/C=C\CCCC(=O)NCCO [AEA, anandamide, reference compound]
SILAC ratio (AEA-DA competition) ([1]; competitor 200 μM): 1.0
SILAC ratio Cend1 ([2]; competitor 200 μM): 1.7
SILAC ratio Slc25a16 ([3]; competitor 200 μM): 1.5
SILAC ratio H2-K1 ([4]; competitor 200 μM): 1.2
SILAC ratio Cops6 ([5]; competitor 200 μM): 1.4
SILAC ratio Npepps ([6]; competitor 200 μM): 1.1

CN1CCN(C(=O)c2c(-c3ccccc3)c3cc([N+](=O)[O-])ccc3n2C)CC1 [KML110, (1-Methyl-5-nitro-3-phenyl-1H-indol-2-yl)(4-methylpiperazin-1-yl)methanone]
SILAC ratio (AEA-DA competition) ([1]; competitor 25 μM): 1.9
SILAC ratio Cend1 ([2]; competitor 25 μM): 0.9
SILAC ratio (AEA-DA competition) [7]: 1.0

CN1CCN(C(=O)c2[nH]c3ccc([N+](=O)[O-])cc3c2-c2ccccc2)CC1 [MJN228, (4-Methylpiperazin-1-yl)(5-nitro-3-phenyl-1H-indol-2-yl)methanone]
SILAC ratio Slc25a16 ([3]; competitor 10 μM): 1.2
SILAC ratio Slc25a16 ([3]; competitor 25 μM): 1.1
SILAC ratio H2-K1 ([4]; competitor 10 μM): 1.0
SILAC ratio H2-K1 ([4]; competitor 50 μM): 0.9
SILAC ratio H2-K1 ([4]; competitor 100 μM): 1.0
SILAC ratio Cops6 ([5]; competitor 100 μM): 1.2
SILAC ratio Npepps ([6]; competitor 25 μM): 1.5
SILAC ratio Npepps ([6]; competitor 100 μM): 4.3

C=CCN(C)CCCCCCOc1ccc(C(=O)c2ccc(Br)cc2)c(F)c1 [Ro 48-8071, reference compound]
SILAC ratio (AEA-DA competition) [7]: 0.9
